In PubChem BioAssay (NCI) one finds GI50 and TGI data, which are given here for 31 compounds.

Structures are written as SMILES. Several values for one entry are separate records, joined by “and”; a condition that tells them apart may be missing. Identical values can stand only once.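 A five-concentration, 48-hour dose response in 96-well plates underlies each endpoint, interpolated linearly between surrounding concentrations. GI50 = concentration required for 50% inhibition of growth. TGI is the concentration that stops growth completely.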

The first test concerns HS 578T breast. In words: NCI anticancer screen, dose series, 48 h.
As for `C=C(CN1CCc2ccccc2C1)c1ccc(C(=O)Nc2cnccn2)cc1`, the GI50 was 57.1 µM and the TGI is more than 100 µM.

In the case of `O=C(CI)NC1Oc2ccccc2-c2oc(=O)c(-c3ccccc3)cc21` (configuration not stated), the GI50 is 2.4 µM and the TGI was found to be 7.28 µM.

The next test has as its system SF-268 CNS. In words: NCI anticancer screen, dose series, 48 h.
Regarding `CC1(Cl)C(=O)NC(=O)N(C2CC(N=[N+]=[N-])C(CO)O2)C1N=[N+]=[N-]` (configuration not stated), the TGI was more than 100 µM.

Take `OCCC1(O)CCC(O)CC1` (configuration not stated): the TGI was more than 100 µM.

As to `CCCCNC1=C(C(=O)OCC)C(=O)CO1`, the TGI is more than 100 µM.

Regarding `CC(C)CC(=O)[O-].CC(C)CC(=O)[O-].N.N.N.N.[Co+3].[O-][Cl+3]([O-])([O-])[O-]`, the GI50 is more than 100 µM and the TGI was more than 100 µM.

Compound `COc1cc(C2c3cc4c(cc3C(NCC(O)CO)C3COC(=O)[C@H]23)OCO4)cc(OC)c1OC` (some centres not stated) showed a TGI of more than 100 µM.

`COC(=O)CC(=O)C[P+](c1ccccc1)(c1ccccc1)c1ccccc1` yielded a TGI of more than 218 µM.

With `CCCCN(CCCC)C(=O)C(=O)C(C#N)c1ccc(C)cc1` (configuration not stated), the TGI was more than 100 µM.

As for `Cc1ccc(S(=O)(=O)C(CC(=O)N2CCCC2)C(=O)c2ccccc2)cc1` (configuration not stated), the TGI is more than 100 µM.

Turning to `CC1(C)CC(/C=C2/OC(=O)c3ccccc32)=C(C#N)C(=O)O1`, the TGI was more than 100 µM.

As to `Cc1nc2c(nc1Cl)nc(Oc1ccc(Cl)cc1)c1ccccc12`, the TGI is more than 100 µM.

`CC(=O)Nc1ccccc1Sc1ccccc1`: the TGI was more than 100 µM.

Regarding `COC(=O)C[C@H]1CCC2(OCCO2)[C@]1(C)C(=O)OC`, the TGI was more than 100 µM.

With `CCCCCCCCCC[C@@H](O)[C@@H]1CC[C@H]([C@H]2CC[C@@H]([C@@H](O)CCCCCCCCCC[C@H]3CC(CC(C)=O)C(=O)O3)O2)O1` (some centres not stated), the TGI is 31.4 µM.

For the compound `C=C(CN1CCc2ccccc2C1)c1ccc(C(=O)Nc2cnccn2)cc1`, the GI50 was 60.4 µM and the TGI is more than 100 µM.

`CCOc1ccc2c(c1)[n+]([O-])c(S(=O)(=O)c1ccc(C)cc1)c(N)[n+]2[O-]`: the TGI is more than 100 µM.

`CC12CC[C@@H](C(C)(C)O)C1[C@@H](O)CC1(C)C2CCC2[C@@]3(C)CC[C@H](O)C(C)(C)C3C(O)C[C@]21C` (some centres not stated): the TGI was 39.7 µM.

On to `O=C(CI)NC1Oc2ccccc2-c2oc(=O)c(-c3ccccc3)cc21` (configuration not stated), for which the GI50 is 1.68 µM and the TGI was found to be 3.36 µM.

Consider `CCOC(=O)NC(=O)c1cn(C2OC(COC(=O)CCCCCCCCC(=O)OCC3OC(n4cc(C(=O)NC(=O)OCC)c(=O)[nH]c4=O)C(O)C3O)C(O)C2O)c(=O)[nH]c1=O` (configuration not stated), for which the TGI was more than 100 µM.

On to `Cc1ccc(C)c(NC(=O)CC/C(=N\NC(=O)C(=O)NN)C(C)C(=O)c2ccc(O)cc2)c1` (configuration not stated), for which the TGI is more than 100 µM.

As to `N=C1CSC2=NC3=C(CCC/C3=C\c3ccccc3)C(c3ccccc3)N12` (configuration not stated), the TGI is 32.9 µM.

Take `COc1ccc(CNc2cc(OC)c(OC)c(OC)c2)cc1`: the TGI was found to be 28.6 µM.

As to `CCOC(=O)/C=C(/C(=O)OCC)n1cc(Cl)c(=O)n(CC(=O)OCC)c1=O`, the GI50 is 24 µM; the TGI is 12.2 µM and 41.4 µM.

In turn, `COc1ccccc1C1C(C(=O)Nc2ccccc2)=C(C)NC(C)=C1C(=O)Nc1ccccc1` gave a TGI of more than 100 µM.

For the compound `OCc1ccc2[n+](c1)CCC1c3ccccc3NC21` (configuration not stated), the TGI was more than 300 µM.

`CCCCCCCCCCCC(=O)CC(=O)c1c(O)cccc1O` had a TGI of 33 µM.

For `CN(C(=O)C12C3C4C1C1C2C3C41C(=O)C(C)(C)C)C(C)(C)C` (configuration not stated), the TGI is more than 100 µM.

Compound `Cc1cc2c(cc1C)[n+](=O)c(C(=O)CC(=O)C(=O)Nc1c(C(C)C)cccc1C(C)C)c(C)n2[O-]` showed a TGI of more than 100 µM.

`COc1ccc2cc1Oc1ccc(cc1)CC1c3cc(c(OC)cc3CCN1C)Oc1c3c(cc4c1C(C2)N(C)CC4)OCO3` (configuration not stated) displayed a TGI of 22.5 µM.

In turn, `COc1ccc(OC)c(NC(=O)C(=O)C(C(C)=O)c2nc3ccc(Cl)cc3[nH]c2=O)c1` (configuration not stated) yielded a TGI of more than 50 µM.

For the compound `N#CC(C(=N/O)/C(=N/O)C(C#N)c1ccc(Cl)cc1)c1ccc(Cl)cc1` (configuration not stated), the TGI is more than 100 µM.

The test system of a further test is EKVX NSCLC. As to the kind of experiment: NCI anticancer screen, dose series, 48 h.
The compound `CC1(Cl)C(=O)NC(=O)N(C2CC(N=[N+]=[N-])C(CO)O2)C1N=[N+]=[N-]` (configuration not stated) registered a TGI of more than 100 µM.

`COc1ccc2ccc3c(c2c1)CN1CCc2cc(OC)c(OC)cc2C1C3` (configuration not stated): the TGI was more than 100 µM.

As for `OCCC1(O)CCC(O)CC1` (configuration not stated), the TGI was more than 100 µM.

As to `CCCCNC1=C(C(=O)OCC)C(=O)CO1`, the TGI is more than 100 µM.

Turning to `CC(C)CC(=O)[O-].CC(C)CC(=O)[O-].N.N.N.N.[Co+3].[O-][Cl+3]([O-])([O-])[O-]`, the GI50 was more than 100 µM and the TGI is more than 100 µM.

In turn, `COc1cc(C2c3cc4c(cc3C(NCC(O)CO)C3COC(=O)[C@H]23)OCO4)cc(OC)c1OC` (some centres not stated) registered a TGI of more than 100 µM.

`COC(=O)CC(=O)C[P+](c1ccccc1)(c1ccccc1)c1ccccc1`: the TGI is more than 218 µM.

`CCCCN(CCCC)C(=O)C(=O)C(C#N)c1ccc(C)cc1` (configuration not stated) displayed a TGI of more than 100 µM.

For `CC1(C)CC(/C=C2/OC(=O)c3ccccc32)=C(C#N)C(=O)O1`, the TGI was more than 100 µM.

`Cc1nc2c(nc1Cl)nc(Oc1ccc(Cl)cc1)c1ccccc12`: the TGI is more than 100 µM.

With `CC(=O)Nc1ccccc1Sc1ccccc1`, the TGI was more than 100 µM.

With `COC(=O)C[C@H]1CCC2(OCCO2)[C@]1(C)C(=O)OC`, the TGI is more than 100 µM.

Compound `CCCCCCCCCC[C@@H](O)[C@@H]1CC[C@H]([C@H]2CC[C@@H]([C@@H](O)CCCCCCCCCC[C@H]3CC(CC(C)=O)C(=O)O3)O2)O1` (some centres not stated) registered a TGI of 78 µM.

Take `C=C(CN1CCc2ccccc2C1)c1ccc(C(=O)Nc2cnccn2)cc1`: the GI50 was 52.8 µM and the TGI is more than 100 µM.

As to `CCOc1ccc2c(c1)[n+]([O-])c(S(=O)(=O)c1ccc(C)cc1)c(N)[n+]2[O-]`, the TGI is more than 100 µM.

`CC12CC[C@@H](C(C)(C)O)C1[C@@H](O)CC1(C)C2CCC2[C@@]3(C)CC[C@H](O)C(C)(C)C3C(O)C[C@]21C` (some centres not stated) showed a TGI of 29 µM.

The compound `CCOC(=O)NC(=O)c1cn(C2OC(COC(=O)CCCCCCCCC(=O)OCC3OC(n4cc(C(=O)NC(=O)OCC)c(=O)[nH]c4=O)C(O)C3O)C(O)C2O)c(=O)[nH]c1=O` (configuration not stated) gave a TGI of more than 100 µM.

Compound `Cc1ccc(C)c(NC(=O)CC/C(=N\NC(=O)C(=O)NN)C(C)C(=O)c2ccc(O)cc2)c1` (configuration not stated) displayed a TGI of more than 100 µM.

`N=C1CSC2=NC3=C(CCC/C3=C\c3ccccc3)C(c3ccccc3)N12` (configuration not stated) had a TGI of 9.54 µM.

As to `COc1ccc(CNc2cc(OC)c(OC)c(OC)c2)cc1`, the TGI amounted to 98.9 µM.

For the compound `CCOC(=O)/C=C(/C(=O)OCC)n1cc(Cl)c(=O)n(CC(=O)OCC)c1=O`, the GI50 is 23.4 µM; the TGI is 10.3 µM and 53.1 µM.
